Data taken from patent US10921312B2 (priority 2014, dated 2021).
“Also recorded” adds a separate entry of the source.

Columns and labels:
[1] = system: iCell® neurons (human induced pluripotent stem cell-derived neurons); type: cell-based
Neuro2A cells = type: cell-based

With GT1b the “increase of sensitivity to neurotoxin polypeptide” value [1] was ~7 fold and the “increase in sensitivity to neurotoxin” value (Neuro2A cells) was “did not exhibit a comparable increase in sensitivity; also recorded: no increase in sensitivity”.
